Values joined by “and” are separate entries in the source; they are usually repeats but may differ in a detail not shown here. Equal values may be shown once. Read-outs that look alike come from different tables or passages of the source.
Columns and labels:
[1] = biological target: human BCL6 BTB domain (Homo sapiens, UniProt P41182); experiment: BCL6 TR-FRET assay; assay type: binding; settings: for IC90: read-out: BCL6 TR-FRET IC90 Geometric Mean
Description: 1. Supplementary experimental: protein production, purification and crystallography 1.1 BCL6 constructs used for assays and crystallography […]
cleavage site. For the TR-FRET assay, the Trx-6His-HRV3C-BCL6 protein construct was used without cleaving the tag, as a 6His was needed to bind to the anti-6His-Terbium antibody. […]
For both plasmid constructs described above, transformed BL21-AI E. coli cells were grown in LB media […]
Expression was carried out at 18 °C for 18 hours. Cells were harvested by centrifugation (5500 g for 30 minutes at 4 °C) and stored at -80 °C.
Cells were re-suspended in a buffer composed of 20 mM Tris pH 8, 250 mM NaCl, 1 mM MgCl2, 0.5 mM […]
lysed by sonication followed by centrifugation at 21,000 g for 45 minutes at 4 °C. […]
ResourceQ and gel filtration using a HiLoad 26/60 Superdex75 column in a buffer containing 20 mM HEPES […]
The final protein was assessed for purity and molar mass by SDS-PAGE and high-resolution mass spectrometry, respectively.
For the uncleaved Trx-6His-HRV3C-BCL6 protein construct to be used in TR-FRET, the protein was directly eluted from the HisTrap FF column without HRV-3C treatment, and submitted to Superdex75 gel filtration […]
Test compounds in DMSO or DMSO alone […]
concentration in 0.7% v/v DMSO final. […]

[2] = biological target: T1, BCL6-SMRT (NCOR2) corepressor protein-protein interaction (Homo sapiens, UniProt P41182); experiment: NanoBRET cellular assay (HEK293T); assay type: cell-based
T1 construct: DNA encoding full length BCL6 and SMRT; expressed in transfected cells; host or cells: HEK293T
Description: Test compounds in DMSO or DMSO alone
concentration in 0.7% v/v DMSO final.
(also called NCOR2) corepressor protein-protein interaction. DNA encoding full length BCL6 and SMRT
fusion proteins BCL6-nanoLuc and SMRT-HaloTag, respectively. HEK293T cells were plated […] in T75
At the time of assay, compounds
dispensing (Labcyte Inc.). Frozen transfected HEK293T cells were thawed, centrifuged and freezing
DMSO final concentration.
After a short centrifugation the
(1st emission filter) / 450-80 nm (2nd emission filter). The % inhibition at each test concentration was
sigmoidal four-parameter logistic fit equation. […]

[3] = Microsomal clearance, mouse liver microsomes; settings: one value given; mouse microsomal clearance per text
[4] = system: BCL6; settings: OCI-Ly1 cells, cited from earlier work; for DC50: read-out: MSD degrader assay [OCI-Ly1] DC50
[5] = cited from earlier work
[6] = system: Caco-2 human colon carcinoma cell line; settings: cited from earlier work; for CACO-2 (ER): efflux ratio
[7] = Table S1, read-out: BCL6 TR-FRET pIC50 mean (converted)
[8] = geometric mean of at least three replicates, read-out: BCL6 TR-FRET IC50
[9] = HEK-293T, Table S2, read-out: BCL6 NanoBRET IC90 individual replicates
[10] = Table S2, read-out: BCL6 NanoBRET pIC50 mean (converted)
[11] = geometric mean of at least three replicates, read-out: NanoBRET IC50
[12] = single replicates, Table S2, read-out: BCL6 NanoBRET IC50 individual replicates
[13] = HEK-293T, Table S2, several values per compound, read-out: BCL6 NanoBRET IC90 Geometric Mean
[14] = supplement, read-out: BCL6 NanoBRET IC50 Geometric Mean
[15] = Table S2, several values per compound, read-out: BCL6 NanoBRET IC90 Geometric Mean
[16] = supplement, read-out: BCL6 TR-FRET IC50 Geometric Mean
[17] = HEK-293T, geometric mean of at least three replicates, read-out: NanoBRET IC90

Row | Compound | IC90 ([1]; Table S1) [nM] | IC50 [1, 7] [nM] | IC50 [1, 8] [nM] | IC90 [2, 9] [nM] | IC50 [2, 11] | IC50 [2, 12] | BCL6 TR-FRET pIC50 mean ([1]; Table S1) | BCL6 NanoBRET pIC50 mean ([2]; Table S2) | IC50 [2, 14] [nM] | further results
1 | COC1CN(c2ncc(Cl)c(Nc3ccc4c(c3)c3c(c(=O)n4C)OCC(F)(F)[C@H](C4CC4)N3)n2)C1 [compound 10, (S)-10-((5-Chloro-2-(3-methoxyazetidin-1-yl)pyrimidin-4-yl)amino)-2-cyclopropyl-3,3-difluoro-7-methyl-1,2,3,4-tetrahydro-[1,4]oxazepino[2,3-c]quinolin-6(7H)-one] | 34.1 | 3.93 | 3.7 | 386 | 38 nM | 26 nM and 57.5 nM and 55.3 nM | – | – | – | IC50 [2, 10]: 43.6 nM
2 | Cc1nccc(Nc2ccc3c(c2)c2c(c(=O)n3C)OCC(F)(F)[C@H](C3CC3)N2)c1Cl [compound 16, (S)-10-((3-chloro-2-methylpyridin-4-yl)amino)-2-cyclopropyl-3,3-difluoro-7-methyl-1,2,3,4-tetrahydro-[1,4]oxazepino[2,3-c]quinolin-6(7H)-one] | 158 | – | 18.5 | 639 | – | 129 nM | 7.7332 | 6.8907 | 129 | IC90 [2, 13]: 639 nM
3 | (2S)-10-((2-(8-Acetyl-3,8-diazabicyclo[3.2.1]octan-3-yl)-5-chloropyrimidin-4-yl)amino)-2-cyclopropyl-3,3-difluoro-7-methyl-1,2,3,4-tetrahydro-[1,4]oxazepino[2,3-c]quinolin-6(7H)-one [compound 6] | 4.6 | – | 0.9 | – | 26.9 nM | 27 nM and 30 nM and 24.1 nM | 9.0422 | 7.57 | – | IC90 [2, 15]: 189 nM and 229 nM and 239 nM; IC90 ([2]; Table S2, read-out: BCL6 NanoBRET IC90 individual replicates): 218 nM; CLint H/M/R [3]: 214 μLmin^-1mg^-1
4 | Cn1c(=O)c2c(c3cc(Nc4nc(N5CCC5)ncc4Cl)ccc31)N[C@@H](C1CC1)C(F)(F)CO2 [compound 9, (S)-10-((2-(Azetidin-1-yl)-5-chloropyrimidin-4-yl)amino)-2-cyclopropyl-3,3-difluoro-7-methyl-1,2,3,4-tetrahydro-[1,4]oxazepino[2,3-c]quinolin-6(7H)-one] | 45.4 | – | 5.5 | 1620 | 149 nM | 229 nM and 48.1 nM and 302 nM | 8.2581 | 6.8258 | 149 | –
5 | C[C@H]1C[C@@H](O)CN(c2ncc(Cl)c(Nc3ccc4c(c3)c3c(c(=O)n4C)OCC(F)(F)[C@H](C4CC4)N3)n2)C1 [CCT373566] | – | – | – | – | – | – | – | – | – | IC50 ([1]; read-out: BCL6 TR-FRET IC50 Geometric Mean): 2.2 nM; MSD degrader assay [OCI-Ly1] Dmax [4]: 92%; DC50 [4]: 0.7 nM; Aq. Sol. [5]: 10 µM; CACO-2 A-B [6]: 3.2e-06 cm/s; CACO-2 (ER) [6]: 13
6 | Cn1c(=O)c2c(c3cc(Nc4nc(N5CC(F)C5)ncc4Cl)ccc31)N[C@@H](C1CC1)C(F)(F)CO2 [compound 13, (S)-10-((5-Chloro-2-(3-fluoroazetidin-1-yl)pyrimidin-4-yl)amino)-2-cyclopropyl-3,3-difluoro-7-methyl-1,2,3,4-tetrahydro-[1,4]oxazepino[2,3-c]quinolin-6(7H)-one] | 50.2 | 6.2 | 5.7 | 444 | 40 nM | 56.7 nM and 28.4 nM and 87.3 nM | – | – | – | IC50 [2, 10]: 52 nM
7 | Cn1c(=O)c2c(c3cc(Nc4nc(N5CC6CCC(C5)O6)ncc4Cl)ccc31)N[C@@H](C1CC1)C(F)(F)CO2 [compound 5, (S)-10-((2-(8-Oxa-3-azabicyclo[3.2.1]octan-3-yl)-5-chloropyrimidin-4-yl)amino)-2-cyclopropyl-3,3-difluoro-7-methyl-1,2,3,4-tetrahydro-[1,4]oxazepino[2,3-c]quinolin-6(7H)-one] | 19.9 | – | 3 | 98.7 | 12.5 nM | 9.6 nM and 14.7 nM and 14 nM | 8.527 | 7.9026 | – | –
8 | Cn1c(=O)c2c(c3cc(Nc4ccnc(Cl)c4C#N)ccc31)N[C@@H](C1CC1)C(F)(F)CO2 [compound 14] | 30.1 | 3.95 | 4.8 | 124 | – | 14.7 nM and 10.4 nM (2×) | – | 7.9327 | 11.7 | –
9 | C[C@@H]1C[C@H](O)CN(c2ncc(Cl)c(Nc3ccc4c(c3)c3c(c(=O)n4C)OCC(F)(F)[C@H](C4CC4)N3)n2)C1 [CCT373567] | – | – | – | – | – | – | – | – | 25.9 | IC50 ([1]; BCL6 TR-FRET IC50 Geometric Mean): 2.8 nM; DC50 [4]: > 10000 nM; Aq. Sol. [5]: 8 µM; CACO-2 A-B [6]: < 3e-06 cm/s; CACO-2 (ER) [6]: > 16
10 | Cn1c(=O)c2c(c3cc(Nc4ccnc(Cl)c4F)ccc31)N[C@@H](C1CC1)C(F)(F)CO2 [compound 18, (S)-10-((2-chloro-3-fluoropyridin-4-yl)amino)-2-cyclopropyl-3,3-difluoro-7-methyl-1,2,3,4-tetrahydro-[1,4]oxazepino[2,3-c]quinolin-6(7H)-one] | 201 | – | 21 | 616 | 108 nM | 99.9 nM and 125 nM and 99.5 nM | 7.6837 | 6.9685 | 108 | IC50 [1, 16]: 20.7 nM; IC90 [2, 13]: 625 nM; IC90 [2, 15]: 511 nM and 732 nM
11 | Cn1c(=O)c2c(c3cc(Nc4nc(N5CC(C#N)C5)ncc4Cl)ccc31)N[C@@H](C1CC1)C(F)(F)CO2 [compound 12, (S)-1-(5-Chloro-4-((2-cyclopropyl-3,3-difluoro-7-methyl-6-oxo-1,2,3,4,6,7-hexahydro-[1,4]oxazepino[2,3-c]quinolin-10-yl)amino)pyrimidin-2-yl)azetidine-3-carbonitrile] | 46.6 | – | 5 | 385 | 55 nM | 73.6 nM and 63.9 nM and 34.7 nM | 8.3025 | 7.2623 | 54.7 | IC90 [2, 13]: 532 nM; IC90 [2, 15]: 398 nM and 270 nM
12 | Cn1c(=O)c2c(c3cc(Nc4nc(N5C6CCC5COC6)ncc4Cl)ccc31)N[C@@H](C1CC1)C(F)(F)CO2 [compound 4, (S)-10-((2-(3-Oxa-8-azabicyclo[3.2.1]octan-8-yl)-5-chloropyrimidin-4-yl)amino)-2-cyclopropyl-3,3-difluoro-7-methyl-1,2,3,4-tetrahydro-[1,4]oxazepino[2,3-c]quinolin-6(7H)-one] | 10.2 | 1.51 | 1.4 | 142 | 10.7 nM and 11 nM | 12.3 nM and 8.2 nM and 12.1 nM | – | 7.9696 | – | IC90 [2, 13]: 185 nM; calculated free (unbound) cellular IC90 ([2]; HEK-293T, calculated free cellular IC90 from NanoBRET assay): 42 nM; IC90 [2, 17]: 143 nM; IC90 [2, 15]: 101 nM and 154 nM
13 | Cn1c(=O)c2c(c3cc(Nc4nc(N5CC(F)(F)C5)ncc4Cl)ccc31)N[C@@H](C1CC1)C(F)(F)CO2 [compound 11, (S)-10-((5-Chloro-2-(3,3-difluoroazetidin-1-yl)pyrimidin-4-yl)amino)-2-cyclopropyl-3,3-difluoro-7-methyl-1,2,3,4-tetrahydro-[1,4]oxazepino[2,3-c]quinolin-6(7H)-one] | 85.4 | – | 10 | 175 | 31 nM | 61.1 nM and 18.2 nM and 26.8 nM | – | 7.5086 | – | IC50 [1, 16]: 10.3 nM; IC90 [2, 17]: 175 nM
14 | Cn1c(=O)c2c(c3cc(Nc4nc(N5C6COCC5CC(O)C6)ncc4Cl)ccc31)N[C@@H](C1CC1)C(F)(F)CO2 (stereo partly drawn) [compound 8, (S)-10-((5-Chloro-2-((1R,5S,7R)-7-hydroxy-3-oxa-9-azabicyclo[3.3.1]-nonan-9-yl)pyrimidin-4-yl)amino)-2-cyclopropyl-3,3-difluoro-7-methyl-1,2,3,4-tetrahydro-[1,4]oxazepino[2,3-c]quinolin-6(7H)-one] | 7.6 | 1.31 | 1.3 | – | – | – | – | – | – | –
